Patent US6642227B2, “Inhibitors of c-Jun N-terminal kinases (JNK) and other protein kinases” (Vertex Pharmaceuticals Incorporated, priority 2001, dated 2003)
pKi: −log10 of the molar value.

These compounds were tested against human Lck kinase (UniProt P06239) (assay: Lck inhibition assay (A: radioactivity-based or B: spectrophotometric coupled-enzyme assay)). Settings: read-out: Lck Activity (Ki rating).
Type: biochemical
In short: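 Two formats. Radiometric: full-length bovine thymus Lck, poly(Glu:Tyr 4:1) 5 mg/ml, 10 μM ATP with ^33P-ATP, HEPES pH 7.6, 10 min preincubation then 20 min at 30 °C, TCA-quenched filter counting. Coupled: 50 nM recombinant human Lck, 150 μM ATP, NADH loss at 340 nm. Ki from competitive-inhibition fit.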

pKi	SMILES
> 7.00	CSc1sc(-c2ccnc(Nc3ccccc3)n2)c(-c2ccc(Cl)cc2)c1C#N [IIa-10, 2-Methylsulfanyl-5-(2-phenylamino-pyrimidin-4-yl)-4-(4-chloro-phenyl)-thiophene-3-carbonitrile]
6.00 to 7.00	CCOc1sc(-c2ccnc(Nc3ccccc3)n2)c(-c2ccc(Cl)cc2)c1C#N [IIa-11, 2-Ethoxy-5-(2-phenylamino-pyrimidin-4-yl)-4-(4-chloro-phenyl)-thiophene-3-carbonitrile]
> 7.00	CSc1sc(-c2ccnc(Nc3ccccc3)n2)c(-c2ccc(C)cc2)c1C#N [IIa-14, 2-Methylsulfanyl-5-(2-phenylamino-pyrimidin-4-yl)-4-p-tolyl-thiophene-3-carbonitrile]
> 7.00	CCOc1sc(-c2ccnc(Nc3ccccc3)n2)c(-c2ccc(C)cc2)c1C#N [IIa-15, 2-Ethoxy-5-(2-phenylamino-pyrimidin-4-yl)-4-p-tolyl-thiophene-3-carbonitrile]
